Measurements taken from patent US8076094B2, “Phosphorylation of histone H3 at threonine 11—a novel epigenetic mark for transcriptional regulation” (Universitaetsklinixum Freiburg, priority 2007, dated 2011).
“Also recorded” adds a separate entry of the source.

Legend:
[1] = system: PSA and KLK2 promoters in LNCaP cells; test: Chromatin immunoprecipitation (ChIP) at AREs of PSA and KLK2 promoters in LNCaP cells; format: cell-based; conditions: for ligand-induced phosphorylation of H3T11 at AREs of PSA and KLK2 promoters: 1×10^−8 M R1881 45 min, FIG. 2d, e; for S5-P CTD pol II at the promoters of PSA and KLK2 / recruitment of RNA polymerase II (α-NTD pol II): Ro318220 1×10^−5 M, FIG. 3f, g
Method: Chromatin Immunoprecipitation ChIP and Re-ChIP experiments were performed as described^5,9. LNCaP cells were cultured for 45 min (FIGS. 1c, 2d, 2e) or 210 min (FIG. 3a, b, f, g) in the presence or absence of 1×10^−8 M R1881 as indicated. Ro318220 (1×10^−5 M) was added to the LNCaP cells (FIG. 3b, g) 60 min before addition of R1881. Three days before harvesting, LNCaP cells were transfected with stealth RNAi (ctr: 5′-[…]-3′ (Sequence Protocol: 5) (SEQ ID NO: 5); PRK1: 5′-[…]-3′ (Sequence Protocol: 6) (SEQ ID NO: 6); Invitrogen) following the manufacturer's instructions. Immunoprecipitation was performed with specific antibodies (α-monoMeH3K9, α-diMeH3K9, α-triMeH3K9, α-acetyl-H3K9/K14, α-H3, α-AR (Upstate Biotechnology), α-S5-P CTD pol II, α-phosphoH3T11 (Abcam), α-NTD pol II (N-20, Santa Cruz), α-LSD1^5, α-JMJD2C^4, and α-PRK1) on protein A-Sepharose 4B (GE-Healthcare). For PCR, 1-5 μl out of 50 μl DNA extract was used. PCR primers for ARE I+II (PSA-459/-121), ARE III (PSA-4288/-3922), KLK2 (−343/-90), GAPDH, and U6 were described previously^5. Western Blot Analysis

[2] = system: endogenous PRK1 and AR in LNCaP cells; test: Western blot analysis of knockdown in LNCaP cells; format: cell-based
Text: (§1) To initiate our study, we analysed the effect of PRK1 knockdown on the expression of endogenous AR target genes.
To determine whether PRK1 controls phosphorylation of H3T11 at promoters of AR-regulated genes in vivo, LNCaP cells were first transfected with either an unrelated control siRNA or a siRNA directed against PRK1, in the presence or absence of R1881, and then subjected to ChIP. Addition of ligand results in phosphorylation of H3T11 at the AREs of the PSA and KLK2 promoters (FIG. 2d, left panel). Androgen-induced phosphorylation at H3T11 is PRK1-dependent since it is blocked by knockdown of PRK1. […] To corroborate that androgen-induced phosphorylation of H3T11 is executed by PRK1, LNCaP cells were cultivated in the presence or absence of Ro318220 and subjected to ChIP.
Experiments were performed as described^2. Western blots were decorated as indicated.

[3] = system: androgen-induced expression of endogenous AR target genes PSA and KLK2 in LNCaP cells; test: Quantitative RT-PCR of endogenous AR target genes in LNCaP cells; format: cell-based; conditions: presence or absence of R1881, FIG. 1a, b
Method: as §1
Quantitative RT-PCR and statistical analysis were performed as described^5. The primers for GAPDH, PSA, and KLK2 were described previously^5.

PRK1 = test: In vitro kinase assay; format: biochemical
Method: To understand how association of PRK1 and AR with chromatin results in increased gene expression, we tested whether PRK1 directly phosphorylates the N-terminal tail of histone H3. Myc-PRK1 and the flag-tagged kinase dead mutant PRK1 K644E^2 were immunoprecipitated from 293 cell lysates with an α-myc or an α-flag antibody, respectively (FIG. 6a, b), and incubated with bacterially expressed and purified GST-H3 1-44 or GST control protein. GST-H3 1-44 is phosphorylated by PRK1, but not by PRK1 K644E (FIG. 2a).
In addition, we incubated nucleosomes purified from HeLa cells with recombinant PRK1 in the presence or absence of Ro318220. […] This phosphorylation is blocked by Ro318220 (FIG. 2c).
The kinase assays were performed as described^11. 10 μg GST-tagged H3 proteins or 1 μg of nucleosomes purified from HeLa cells^12 were incubated with immunoprecipitated PRK1 proteins (FIG. 2a) or 1 μg purified recombinant PRK1 (FIG. 2b, c; ProQinase GmbH) for 0 to 10 min (FIG. 2c) or 20 min (FIG. 2a, b) at 30° C. in kinase buffer containing 20 mM Tris-HCl pH 7.5, 20 μM ATP, 8 mM MgCl2, and 5 μCi (γ-^32P) ATP. The reaction mixture was analysed by SDS-PAGE followed by autoradiography or Western blotting using antibodies as indicated.

[4] = system: AR-dependent reporters in LNCaP cells; test: AR-dependent reporter (luciferase) assay in LNCaP cells; format: cell-based; conditions: R1881, FIG. 5a, b
Method: CV1 and LNCaP cells were cultured and transfected as described^2. The following amounts were transfected per well: 500 ng of MMTV-LUC, Probasin-LUC, or PSA-LUC; 25 ng of AR expression plasmid; 200 ng (FIG. 3e) or 400 ng (FIG. 3c, d) expression plasmids of LSD1 or JMJD2C, 150 ng PRK1 K644E, 1000 ng expression plasmid of miRNA-control, miRNA1-PRK1, or miRNA2-PRK1 (FIG. 5a). Cells were cultivated for 18 hours in the presence or absence of 1×10^−10 M R1881 (Sigma), 2.5×10^−6 M (FIG. 3d) or 4.5×10^−6 M (FIG. 3c) Ro318220 (Roche) as indicated. Luciferase activity was assayed as described^2. All experiments were repeated at least four times in duplicate.

[5] = R1881 210 min, Ro318220 1×10^−5 M 60 min before R1881, stealth RNAi three days before harvesting, FIG. 3a, b

phosphorylation of GST-H3 1-44 by PRK1 (PRK1; immunoprecipitated Myc-PRK1, 20 min at 30° C., FIG. 2a)	phosphorylation of nucleosomes at H3T11 by PRK1 (PRK1; nucleosomes from HeLa cells, recombinant PRK1, 0 to 10 min, Western blot α-phosphoH3T11, FIG. 2c)	Compound	ligand-induced phosphorylation of H3T11 at AREs of PSA and KLK2 promoters [1]	ligand-induced acetylation of H3K9/K14 [1, 5]	ligand-induced demethylation of tri-, di-, and monomethyl H3K9 [1, 5]	S5-P CTD pol II at the promoters of PSA and KLK2 ([1]; R1881 210 min)	recruitment of RNA polymerase II (α-NTD pol II) ([1]; R1881 210 min)	down-regulation of endogenous PRK1 ([2]; FIG. 1a, 2d right panels)	levels of endogenous AR ([2]; FIG. 2d right panel)	androgen-induced expression of endogenous AR target genes (PSA, KLK2) [3]	ligand-induced expression of AR-dependent reporters [4]
		5′-GAAAGUCCUAGAUCCACACGCAAAU-3′ (siRNA; Stealth RNAi from Invitrogen, chemistry not given here) [siRNA directed against PRK1]	blocked	blocked	severely impaired	loss	not affected	depletion is specific	does not affect		
completely blocks	blocked	Cn1cc(C2=C(c3cn(CCCSC(=N)N)c4ccccc34)C(=O)NC2=O)c2ccccc21 [Ro318220]	efficiently blocks		loss	loss	not affected			reduce expression; also recorded: severely impedes	severely reduce; also recorded: strong decrease
